“And” between values parts separate entries of the source, which are not always exact repeats. Equal entries are not always repeated. Structures can show the parent of a compound that is named as a salt.
Legend:
[1] = system: 5×FAD mice; test: Open field in 5×FAD mice; format: in vivo, mouse
Description: Mice were individually placed within a cage and taken to a dimly lit room containing an open field arena 50×50 cm in size. They were given 10 min prior to being placed within the arena, where for a period of 5 min they were allowed to explore. Two weeks later, this was repeated. […] The floor was either white or black, depending on mouse coat color, to allow automatic analysis of movement parameters, apart from rearing which was manually counted.

[2] = biological target: T1, QR2 (Homo sapiens, UniProt P16083); test: QR2 enzymatic activity assay (menadione/BNAH), fluorescence readout; format: biochemical; design: purchased Sigma-Aldrich
T1 sequence (P16083 1-231): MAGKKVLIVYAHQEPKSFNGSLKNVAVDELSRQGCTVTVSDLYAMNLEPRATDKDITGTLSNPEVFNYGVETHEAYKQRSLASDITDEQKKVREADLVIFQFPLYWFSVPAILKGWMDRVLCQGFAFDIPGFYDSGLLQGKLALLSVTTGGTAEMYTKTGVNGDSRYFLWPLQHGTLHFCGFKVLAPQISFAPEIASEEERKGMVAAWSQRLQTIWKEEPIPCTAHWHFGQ

[3] = system: THLE-2 cells; test: Cell toxicity assay (ATP depletion, CellTiter Glo); settings: 72 h incubation, CellTiter Glo
Description: THLE-2 (CRL-2706™) were grown in the BEGM Bullet Kit (CC-3170) from Lonza. Besides the additives contained in the kit, the medium was further supplemented with 5 ng/mL EGF (Sigma), 70 ng/mL phosphoethanolamine (Sigma) and 10% FBS (Biological Industries). The plates for the THLE-2 needed to be pre-coated with a mixture of 0.01 mg/mL fibronectin, 0.05 mg/mL of PureCol™ EZ Gel Solution (Sigma) and 0.01 mg/mL of BSA dissolved in BEBM medium (Lonza). The coating medium was aspirated before seeding.
THLE-2 cells were exposed to the compounds in a 9-point, 2-fold dilution dose response series with a 100 μM as upper limit, for 72 h. Following the 72 h of exposure to the test compounds, cell viability was determined by measuring the concentration of cellular ATP (CellTiter Glo, Promega). The luminescence signal was measured on a Pherastar FS multi-mode plate reader (BMG Labtech). Each data point was tested in a triplicate.
First, toxicity was assessed in an ATP depletion assay, using THLE-2 cells following a 72 h exposure to a dose response of each of the tested compounds.

[4] = system: HEK293T cells; test: XTT cell viability assay; format: cell-based; settings: 3 h incubation, 20 nM-20 μM
Description: HEK293FT cells were cultured with penicillin-streptomycin antibiotics in Invitrogen DMEM (Thermo Fisher Scientific) with 10% fetal bovine serum and L-glutamine and grown to 80-90% confluence in 100 mm plates, while being passaged every 2-3 days. For the XTT assay (Biological Industries), cells were then collected, centrifuged, and resuspended in fresh minimum essential medium, and seeded at 50,000 cells/well in 96-well, poly-L-lysine-coated Nunc black, clear flat-bottomed plates (Thermo Fisher Scientific). The next day, the cells were treated with increasing doses of QR2 inhibitors or vehicle for 3 h, and the XTT assay was then carried out as according to the manufacturer's instructions.

[5] = biological target: T2, QR1 (NQO1) (Homo sapiens, UniProt P15559); test: Selectivity assay with QR1 in place of QR2, fluorescence readout; format: biochemical
T2 construct: purchased Sigma-Aldrich
T2 sequence (P15559 whole entry): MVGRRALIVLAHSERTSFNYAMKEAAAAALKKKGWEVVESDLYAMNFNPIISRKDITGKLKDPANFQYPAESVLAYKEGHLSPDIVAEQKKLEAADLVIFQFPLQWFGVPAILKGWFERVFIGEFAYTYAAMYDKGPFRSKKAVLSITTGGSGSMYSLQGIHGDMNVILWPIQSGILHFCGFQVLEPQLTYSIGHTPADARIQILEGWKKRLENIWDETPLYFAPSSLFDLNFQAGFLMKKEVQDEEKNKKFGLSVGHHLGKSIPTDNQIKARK

Cc1ccc(-c2cn3cccc(C)c3n2)cc1S(=O)(=O)N1CCNCC1 [YB-537, 8-methyl-2-(4-methyl-3-(piperazin-1-ylsulfonyl)phenyl)imidazo[1,2-a]pyridine hydrochloride]
average velocity ([1]; 5×FAD both sexes): 10.9 ± 0.800 cm/s
hind-limb rearing frequency ([1]; 5×FAD both sexes): 35.72±3.292
maximum movement bout duration ([1]; 5×FAD both sexes): 8.061 ± 1.322 s
meandering ([1]; 5×FAD both sexes): 733.4±42.8 deg/cm
proportion of time moving ([1]; 5×FAD both sexes): 81.44±1.134%
total distance traveled ([1]; 5×FAD both sexes): 3244±237.9 cm
total movement duration ([1]; 5×FAD both sexes): 244.3 ± 3.402 s
average velocity ([1]; 5×FAD females): 12.03 ± 1.625 cm/s
hind-limb rearing frequency ([1]; 5×FAD females): 35.29±4.894
maximum movement bout duration ([1]; 5×FAD females): 9.677 ± 3.012 s
meandering ([1]; 5×FAD females): 696.3±65.26 deg/cm
proportion of time moving ([1]; 5×FAD females): 81.84±1.856%
total distance traveled ([1]; 5×FAD females): 3581±484.5 cm
total movement duration ([1]; 5×FAD females): 245.5 ± 5.568 s
average velocity ([1]; 5×FAD males): 10.01 ± 0.611 cm/s
hind-limb rearing frequency ([1]; 5×FAD males): 36.06±4.703
maximum movement bout duration ([1]; 5×FAD males): 6.804 s
meandering ([1]; 5×FAD males): 762.2±58.17 deg/cm
proportion of time moving ([1]; 5×FAD males): 81.13±1.5%
total distance traveled ([1]; 5×FAD males): 2983±179.3 cm
total movement duration ([1]; 5×FAD males): 243.4 ± 4.5 s
IC50 [2]: 0.03 µM
median lethal dose (LD50) in THLE cells [3]: > 100 µM
toxicity in XTT assay [4]: no toxicity
IC50 [5]: 18.4 µM

Cc1cccn2cc(-c3cccc(S(=O)(=O)N4CCC(C)CC4)c3)nc12 [YB-800]
IC50 [2]: 0.03 µM
median lethal dose (LD50) in THLE cells [3]: 78.4 µM and 78.401 µM
toxicity in XTT assay [4]: no toxicity
IC50 [5]: > 9.99 µM

From patent US20240228481A1, “NOVEL SULFONAMIDE SERIES OF QR2 INHIBITORS TO TACKLE OXIDATIVE STRESS AND COGNITIVE DECLINE” (CARMEL HAIFA UNIVERSITY ECONOMIC CORPORATION LTD., priority 2021, published 2024)
